In patent US20080020387A1, “BIOMARKER-OPTIMIZED ADHD TREATMENT” (priority 2006, published 2008):

Assays:
[1] = tested on: children with ADHD; experiment: Reported side effects after single drug dose and TMS; assay type: in vivo, human
Method: (§1) The study is a randomized, double-blind, crossover design comparing the effects of single doses of atomoxetine (ATX) and methylphenidate (MPH). Sixteen patients (age 8-17 years, mean age=12, ±3; 2 girls) participate. Nine have TS. Medication doses are clinically relevant: approximately 0.5 mg/kg for MPH and 1.0 mg/kg for ATX, administered as follows:
(§2) 1) subjects 20-29 kg→10 mg MPH, 20 mg ATX; 2) subjects 30-49 kg→20 mg MPH, 40 mg ATX; 3) subjects 50 kg and above→30 mg MPH, 60 mg ATX. Subjects and investigators are blind to the order of treatment throughout the study. The one-week interval between study visits is based on published pharmacokinetic data for single doses of ATX.

[2] = tested on: children with ADHD; experiment: Paired and single TMS of motor cortex measuring short interval cortical inhibition (SICI) before and after single drug doses; assay type: in vivo, human; conditions: for Cortical Inhibition (SICI), post-medication: 90 minutes later
Method: Accordingly, sixteen children with ADHD, aged 8-17, are studied. Seven are homozygotes for the 10-repeat allele. Subjects are given single oral doses of 0.5 mg/kg methylphenidate and 1.0 mg/kg atomoxetine at visits separated by one week in a randomized, double-blind crossover design. Paired and single TMS are used to measure SICI before and after drug administration. Medication and genotype effects on SICI are estimated with repeated measures, mixed model regression. […] Some variation in ADHD medication-induced neurophysiological responses is explained by differences in the number of 3′-UTR, 10-repeat VNTR alleles in DAT1.
as §1, §2
Neurophysiological studies are performed as described by Gilbert et al. ((2006) Neuropsychopharmacology 31 :442-449). TMS is performed by an investigator blind to genotype and clinical ratings.
Resting and active motor threshold (RMT and AMT) are measured using the method described in Mills and Nithi ((1997) Muscle and Nerve 20:570-576). SICI and intracortical facilitation (ICF) are measured with the Abductor Pollicis Brevis (APB) at rest, according to established paradigms (Kujirai et al. (1993) J. Physiol. 471:501-519; Ziemann et al. (1997) Electroencelphalogr. Clin. Neurophysiol. 105:430-437). SICI is measured with a conditioning pulse, 1% of stimulator output below AMT (˜70% of RMT), delivered 3 msec before a suprathreshold test pulse. ICF is measured with the conditioning pulse 10 msec before the test pulse. Twenty trials at each interval and 20 unconditioned test pulses are delivered in random order. SICI and ICF are expressed as the ratios of the mean motor evoked potential (MEP) amplitudes evoked by the pulse pairs divided by the mean amplitude of the MEP from the single test pulses.
After baseline TMS testing, subjects are administered study medication, and all measurements are repeated 90 minutes later, consistent with expected peak serum drug levels. Each TMS session takes approximately 30 minutes.
Primary analysis. The primary outcome of interest for this study is ADHD-medication, genotype, and medication*genotype effects on cortical inhibition (SICI). SICI measures are subjected to a mixed model, repeated measures analysis of variance using PROC MIXED. After assuring that baselines are not different and that there are no effects of order, we then model SICI=medication+DAT genotype+medication*genotype, combining baselines. Age and ADHD severity scores are also entered into the models as potential explanatory covariates. ICF is modeled in the same manner to determine if any effects are specific to cortical inhibition.
Secondary analyses. The secondary outcome of interest is to compare ATX and MPH effects on cortical inhibition (SICI). Two repeated measure regressions are performed: 1) the baselines-combined model above, and 2) a day-of-visit, baseline-adjusted model. Genotypes are entered to estimate genotype-specific effects of ATX vs. MPH. The Tic phenotype is entered to estimate TIC*medication and TIC*ATX vs. TIC*MPH effects. In addition, using Spearman, correlations of changes in SICI and ICF are assessed for ATX and MPH, and for SICI and ADHD severity.

[3] = tested on: children with ADHD; conditions: single 10 mg dose, Moll et al. (2000); cited from earlier work
[4] = tested on: ADHD patients; conditions: cited from earlier work
[5] = DAT1 10-repeat homozygotes, single oral dose
[6] = DAT 9, 10 genotype, single oral dose, baseline-adjusted estimate
[7] = DAT 10, 10 genotype, single oral dose, baseline-adjusted estimate
[8] = No Tics, single oral dose, baseline-adjusted estimate
[9] = Tics, single oral dose, baseline-adjusted estimate
[10] = all subjects, single oral dose ~1.0 mg/kg ATX or ~0.5 mg/kg MPH, adjusted for day-of-visit pre-treatment SICI, MEP amplitude ratio
[11] = heterozygotes (single 10-repeat DAT1 allele), single oral dose
[12] = individuals with ADHD and no TS, single oral dose
[13] = patients with ADHD and TS, single oral dose

COC(=O)C(c1ccccc1)C1CCCCN1 (stereo not shown) [MPH, methylphenidate]
Severity rating of side effects ([1]; after drug/TMS): mild, except for one child who reports a moderate headache
Side effect: abdominal pain (number of reports) ([1]; after drug/TMS): 1
Side effect: arm/other pain (number of reports) ([1]; after drug/TMS): 2
Side effect: headache (number of reports) ([1]; after drug/TMS): 3
Side effect: hearing change (number of reports) ([1]; after drug/TMS): 1
Side effect: numbness/tingling (number of reports) ([1]; after drug/TMS): 1
Number of subjects reporting side effects ([1]; of 16 subjects, after drug/TMS): 6 subjects
Effect of medication on SICI [2, 5]: slight decrease in SICI
Cortical Inhibition (SICI), post-medication [2, 6]: 0.47
Cortical Inhibition (SICI), post-medication [2, 7]: 0.61
Cortical Inhibition (SICI), post-medication [2, 8]: 0.64
Cortical Inhibition (SICI), post-medication [2, 9]: 0.44
Cortical Inhibition (SICI), post-medication [2, 10]: 0.54
Effect of medication on SICI [2, 11]: tend to increase (normalize) SICI
Effect of medication on SICI [2, 12]: decrease SICI
Effect of medication on SICI [2, 13]: increase (normalize) SICI
Effect on SICI [3]: significantly increase (normalize) SICI
Clinical response by DAT1 genotype ([4]; individuals with the DAT1 10/10 genotype, e.g. Cheon et al. (2005)): poorer clinical response

CNCC[C@@H](Oc1ccccc1C)c1ccccc1 [ATX, atomoxetine]
Number of subjects reporting side effects ([1]; both, human, in vivo): 4 subjects
Side effect: headache (number of reports) ([1]; both, human, in vivo): 3
Side effect: loss of appetite (number of reports) ([1]; both, human, in vivo): 2
Side effect: nausea (number of reports) ([1]; both, human, in vivo): 2
Side effect: numbness/tingling (number of reports) ([1]; both, human, in vivo): 1
Side effect: scalp pain (number of reports) ([1]; both, human, in vivo): 1
Side effect: stomach pain (number of reports) ([1]; both, human, in vivo): 1
Severity rating of side effects ([1]; in vivo): mild
Effect of medication on SICI [2, 5]: slight decrease in SICI
Cortical Inhibition (SICI), post-medication [2, 6]: 0.51
Cortical Inhibition (SICI), post-medication [2, 7]: 0.66
Cortical Inhibition (SICI), post-medication [2, 8]: 0.62
Cortical Inhibition (SICI), post-medication [2, 9]: 0.56
Cortical Inhibition (SICI), post-medication [2, 10]: 0.59
Effect of medication on SICI [2, 11]: tend to increase (normalize) SICI
Effect of medication on SICI ([2]; heterozygotes (single 10-repeat DAT1 allele), single oral dose, listed as Atomoxetine): increases (improves) SICI
Effect of medication on SICI [2, 12]: decrease SICI
Effect of medication on SICI [2, 13]: increase (normalize) SICI
ADHD patients who do not respond to treatment (non-response rate) ([4]; clinical evidence, Michelson et al. (2002)): approximately 40%
